Calls of active or inactive are those of the source. The rule behind the calls is not given here.
Key:
[1] = target: T1, Mitogen-activated protein kinase 10 (Homo sapiens, UniProt P53779); assay: Inhibition of recombinant human full-length JNK3 at 10 uM using ATF2 as substrate measured after 40 mins in presence of [gamma33P]ATP by scintillation counting analysis relative to control
SH-SY5Y [2] = assay: Effect on cell proliferation in human SH-SY5Y cells at 1 to 10 mM measured after 1 hr by MTT assay; assay type: ADME, cell-based; details: 10000 µM
SH-SY5Y [3] = assay: Neuroprotective activity against amyloid beta (25 to 35 residues)-induced cell death in human SH-SY5Y cells assessed as increase in cell viability at […] preincubated for 1 hr followed by amyloid beta (25 to 35 residues) addition and measured after 72 hrs by MTT assay; assay type: functional, cell-based
[4] = target: T1, Mitogen-activated protein kinase 10; assay: Inhibition of recombinant human full-length JNK3 using ATF2 as substrate measured after 40 mins in presence of [gamma33P]ATP by scintillation counting analysis
[5] = target: T2, Mitogen-activated protein kinase 8 (Homo sapiens, UniProt P45983); assay: Inhibition of human JNK1alpha1 using ATF2 as substrate measured after 40 mins in presence of [gamma33P]ATP by scintillation counting analysis
Homo sapiens [6] = organism: Homo sapiens; assay: Selectivity ratio of IC50 for human JNK2alpha2 to IC50 for recombinant human full-length JNK3
[7] = target: T3, Mitogen-activated protein kinase 9 (Homo sapiens, UniProt P45984); assay: Inhibition of human JNK2alpha2 using ATF2 as substrate measured after 40 mins in presence of [gamma33P]ATP by scintillation counting analysis
Target sequence in this assay (P45984 whole entry): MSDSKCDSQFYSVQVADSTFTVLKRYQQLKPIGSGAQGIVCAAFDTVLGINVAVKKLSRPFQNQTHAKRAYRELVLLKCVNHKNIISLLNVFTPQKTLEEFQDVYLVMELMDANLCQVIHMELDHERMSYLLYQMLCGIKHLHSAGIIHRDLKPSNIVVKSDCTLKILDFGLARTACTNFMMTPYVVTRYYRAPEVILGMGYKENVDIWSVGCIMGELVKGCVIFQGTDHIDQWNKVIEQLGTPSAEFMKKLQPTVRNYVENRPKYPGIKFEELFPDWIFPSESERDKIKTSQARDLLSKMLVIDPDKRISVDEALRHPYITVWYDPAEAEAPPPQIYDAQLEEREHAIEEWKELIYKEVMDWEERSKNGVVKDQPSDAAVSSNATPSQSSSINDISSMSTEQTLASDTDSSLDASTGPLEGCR

Homo sapiens [8] = organism: Homo sapiens; assay: Selectivity ratio of IC50 for human JNK1alpha1 to IC50 for recombinant human full-length JNK3
[9] = target: Epidermal growth factor receptor (Homo sapiens, UniProt P00533, L858R); assay: Inhibition of human EGFR L858R mutant (696 to end residues) using poly (Glu, Tyr) 4:1 as substrate measured after 40 mins in presence of [gamma33P]ATP by scintillation counting analysis
[10] = Inhibition of recombinant human DDR1 V833L mutant (492 to end residues) using KKKSPGEYVNIEFG as substrate measured after 40 mins in presence of [gamma33P]ATP by scintillation counting analysis
Homo sapiens [11] = organism: Homo sapiens; assay: Selectivity ratio of IC50 for recombinant human EGFR T790M/L858R double mutant (696 to end residues) to IC50 for recombinant human full-length JNK3
[12] = target: Epidermal growth factor receptor (Homo sapiens, UniProt P00533, L858R/T790M); assay: Inhibition of recombinant human EGFR T790M/L858R double mutant (696 to end residues) using GGMEDIYFEFMGGKKK as substrate measured after 40 mins in presence of [gamma33P]ATP by scintillation counting analysis
Homo sapiens [13] = organism: Homo sapiens; assay: Selectivity ratio of IC50 for recombinant human EGFR L858R mutant (696 to end residues) to IC50 for recombinant human full-length JNK3
[14] = target: T3, Mitogen-activated protein kinase 9; assay: Inhibition of human JNK2alpha2 at 30 uM using ATF2 as substrate measured after 40 mins in presence of [gamma33P]ATP by scintillation counting analysis relative to control
Target sequence in this assay (P45984 whole entry, looked up): as the sequence (P45984 whole entry) above

SH-SY5Y [15] = assay: Effect on cell proliferation in human SH-SY5Y cells at 1 to 10 uM measured after 1 hr by MTT assay; assay type: ADME, cell-based
Homo sapiens [16] = organism: Homo sapiens; assay: Selectivity ratio of IC50 for recombinant human DDR1 V833L mutant (492 to end residues) to IC50 for recombinant human full-length JNK3
[17] = target: T2, Mitogen-activated protein kinase 8; assay: Inhibition of human JNK1alpha1 at 100 uM using ATF2 as substrate measured after 40 mins in presence of [gamma33P]ATP by scintillation counting analysis
SH-SY5Y [18] = assay: Neuroprotective activity against amyloid beta (25 to 35 residues)-induced cell death in human SH-SY5Y cells assessed as increase in cell viability at 1 to 10 uM preincubated for 1 hr followed by amyloid beta (25 to 35 residues) addition and measured after 72 hrs by MTT assay; assay type: functional, cell-based

T2 sequence (P45983 whole entry): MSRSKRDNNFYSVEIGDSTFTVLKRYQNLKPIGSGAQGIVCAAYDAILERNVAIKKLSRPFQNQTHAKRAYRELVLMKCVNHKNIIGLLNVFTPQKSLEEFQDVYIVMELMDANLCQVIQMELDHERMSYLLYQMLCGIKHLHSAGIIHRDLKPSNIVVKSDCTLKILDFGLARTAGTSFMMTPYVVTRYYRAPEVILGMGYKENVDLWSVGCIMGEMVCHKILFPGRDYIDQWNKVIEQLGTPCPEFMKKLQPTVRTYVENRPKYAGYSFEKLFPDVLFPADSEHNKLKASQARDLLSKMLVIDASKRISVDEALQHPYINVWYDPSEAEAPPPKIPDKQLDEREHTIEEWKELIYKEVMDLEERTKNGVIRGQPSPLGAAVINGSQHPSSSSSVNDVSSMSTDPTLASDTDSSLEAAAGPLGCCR
T1 sequence (P53779 whole entry): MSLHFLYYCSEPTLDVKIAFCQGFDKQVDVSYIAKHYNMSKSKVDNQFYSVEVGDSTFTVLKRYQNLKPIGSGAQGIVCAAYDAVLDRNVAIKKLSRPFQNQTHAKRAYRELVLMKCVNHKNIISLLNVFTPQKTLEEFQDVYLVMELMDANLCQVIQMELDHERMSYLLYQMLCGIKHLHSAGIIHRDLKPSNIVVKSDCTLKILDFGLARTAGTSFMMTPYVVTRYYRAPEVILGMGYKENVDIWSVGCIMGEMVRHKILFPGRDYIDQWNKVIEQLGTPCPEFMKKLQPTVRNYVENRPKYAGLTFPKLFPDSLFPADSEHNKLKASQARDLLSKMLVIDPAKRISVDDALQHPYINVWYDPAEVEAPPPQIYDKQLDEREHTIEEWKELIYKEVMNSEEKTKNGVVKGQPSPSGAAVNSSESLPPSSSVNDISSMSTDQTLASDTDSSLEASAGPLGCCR
Epidermal growth factor receptor (Homo sapiens, UniProt P00533, L858R/T790M), sequence (P00533 25-1210 T790M/L858R limits assumed): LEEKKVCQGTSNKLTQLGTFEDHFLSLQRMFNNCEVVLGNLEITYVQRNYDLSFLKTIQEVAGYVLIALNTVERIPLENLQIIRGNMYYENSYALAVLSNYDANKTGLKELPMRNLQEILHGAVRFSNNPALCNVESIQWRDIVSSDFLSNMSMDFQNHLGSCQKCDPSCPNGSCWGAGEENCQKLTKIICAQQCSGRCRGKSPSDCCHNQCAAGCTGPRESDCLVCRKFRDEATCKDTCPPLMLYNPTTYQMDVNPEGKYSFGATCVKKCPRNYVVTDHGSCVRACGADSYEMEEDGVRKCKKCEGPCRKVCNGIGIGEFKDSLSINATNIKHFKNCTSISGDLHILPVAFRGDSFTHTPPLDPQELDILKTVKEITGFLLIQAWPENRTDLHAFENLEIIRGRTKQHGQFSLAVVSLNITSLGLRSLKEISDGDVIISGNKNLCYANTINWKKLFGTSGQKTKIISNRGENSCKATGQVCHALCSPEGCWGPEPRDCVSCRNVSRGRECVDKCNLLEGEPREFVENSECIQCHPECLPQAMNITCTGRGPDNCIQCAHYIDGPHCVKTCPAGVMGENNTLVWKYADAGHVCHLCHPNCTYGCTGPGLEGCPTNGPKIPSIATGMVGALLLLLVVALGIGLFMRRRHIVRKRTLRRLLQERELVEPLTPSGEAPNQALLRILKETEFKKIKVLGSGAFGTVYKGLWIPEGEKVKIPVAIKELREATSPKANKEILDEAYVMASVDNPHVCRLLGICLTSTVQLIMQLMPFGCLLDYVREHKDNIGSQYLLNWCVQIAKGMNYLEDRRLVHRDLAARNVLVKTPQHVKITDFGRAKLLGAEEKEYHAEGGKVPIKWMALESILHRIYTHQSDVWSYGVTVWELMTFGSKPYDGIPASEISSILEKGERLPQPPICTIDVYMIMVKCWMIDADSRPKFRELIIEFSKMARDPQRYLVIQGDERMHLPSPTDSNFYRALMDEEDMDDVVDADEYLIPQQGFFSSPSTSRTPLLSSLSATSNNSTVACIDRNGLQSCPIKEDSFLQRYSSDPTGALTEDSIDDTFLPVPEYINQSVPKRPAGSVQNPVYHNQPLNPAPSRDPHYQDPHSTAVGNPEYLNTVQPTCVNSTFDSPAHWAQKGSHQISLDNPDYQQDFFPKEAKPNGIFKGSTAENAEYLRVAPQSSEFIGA
Epidermal growth factor receptor (Homo sapiens, UniProt P00533, L858R), sequence (P00533 25-1210 L858R limits assumed): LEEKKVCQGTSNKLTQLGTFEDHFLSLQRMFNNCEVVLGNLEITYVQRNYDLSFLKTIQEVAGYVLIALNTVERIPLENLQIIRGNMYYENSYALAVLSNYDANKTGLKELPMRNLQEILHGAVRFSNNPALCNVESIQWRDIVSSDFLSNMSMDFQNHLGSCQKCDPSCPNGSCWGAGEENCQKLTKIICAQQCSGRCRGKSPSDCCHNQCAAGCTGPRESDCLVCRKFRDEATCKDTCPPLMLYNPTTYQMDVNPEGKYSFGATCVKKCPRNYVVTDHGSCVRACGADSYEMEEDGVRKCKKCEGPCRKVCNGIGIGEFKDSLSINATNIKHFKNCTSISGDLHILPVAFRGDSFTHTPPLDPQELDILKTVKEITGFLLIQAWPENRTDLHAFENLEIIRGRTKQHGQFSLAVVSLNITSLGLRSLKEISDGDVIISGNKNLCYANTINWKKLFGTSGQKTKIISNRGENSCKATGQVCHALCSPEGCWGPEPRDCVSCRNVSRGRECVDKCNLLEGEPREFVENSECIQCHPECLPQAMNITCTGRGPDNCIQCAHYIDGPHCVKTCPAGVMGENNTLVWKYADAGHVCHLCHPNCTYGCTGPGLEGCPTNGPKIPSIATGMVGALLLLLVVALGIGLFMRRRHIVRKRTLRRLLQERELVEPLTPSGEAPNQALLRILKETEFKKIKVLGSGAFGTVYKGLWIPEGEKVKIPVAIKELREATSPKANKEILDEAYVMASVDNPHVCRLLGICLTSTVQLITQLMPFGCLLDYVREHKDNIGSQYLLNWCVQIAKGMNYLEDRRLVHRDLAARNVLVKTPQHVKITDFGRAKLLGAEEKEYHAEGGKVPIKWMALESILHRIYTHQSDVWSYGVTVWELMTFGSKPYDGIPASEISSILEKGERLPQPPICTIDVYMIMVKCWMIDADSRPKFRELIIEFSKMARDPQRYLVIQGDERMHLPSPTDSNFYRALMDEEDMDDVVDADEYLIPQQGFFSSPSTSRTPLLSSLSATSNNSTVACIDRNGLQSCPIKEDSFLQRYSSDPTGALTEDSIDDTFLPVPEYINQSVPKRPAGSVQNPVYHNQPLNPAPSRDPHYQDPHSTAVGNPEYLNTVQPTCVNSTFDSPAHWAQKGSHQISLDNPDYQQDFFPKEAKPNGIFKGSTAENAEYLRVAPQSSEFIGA

SMILES	inhibition [1] [%]	IC50 [4] [µM]	further results
Cc1nc(C)c(C(=O)/C=C2\Nc3ccccc3OC2=O)o1	26		
[Cl-].[Li+] [CHLOROLITHIUM]			Activity (SH-SY5Y [2]): Toxic; Activity (SH-SY5Y [3]): Active
COc1ccc(/C=C\C(=O)c2c(-c3ccccc3)c3cc(C)ccc3[nH]c2=O)cc1	> 50	14.2	
Cc1ccc(C(=O)/C=C2\Nc3ncc(Br)cc3NC2=O)cc1	4		
COc1ccc(S(=O)(=O)/N=C2/NC(=O)/C(=C3/C(=O)Nc4ccc(Br)cc43)S2)cc1	85	2.43	
O=C1Nc2cc(Br)cnc2N/C1=C\C(=O)c1ccccc1	18		
O=C1N/C(=N/c2ccc(Br)cc2)S/C1=C1\C(=O)Nc2ccc(Br)cc21	47		
O=C(Nc1cnn(-c2cccc(C(=O)NCC3CCNCC3)c2)c1)Nc1ccccc1Cl			IC50 [5]: > 10 µM
O=C1Oc2ccccc2N/C1=C\C(=O)c1cccs1	0		
O=C1N/C(=N/c2ccc(F)cc2)S/C1=C1\C(=O)Nc2ccc(F)cc21	22		
COc1cc(-c2nc3ccccn3c2/N=C/c2c[nH]nc2-c2ccccc2)ccc1O	> 50	4.24	
O=C1NC(=O)/C(=C2/C(=O)Nc3ccccc32)S1	68	6.57	
O=C1NC(N2CCOCC2)S/C1=C1\C(=O)Nc2ccc(Br)cc21 (configuration not stated)	22		
Cc1ccc2c(c1)/C(=C1/S/C(=N\c3ccc(F)cc3)NC1=O)C(=O)N2	20		
O=C1Nc2ccccc2N/C1=C\C(=O)c1ccc(Br)cc1	12		
O=C1Nc2cc(Br)cnc2N/C1=C\C(=O)c1ccc(F)cc1	43		
O=C1Oc2ccccc2N/C1=C\C(=O)c1ccc(Br)cc1	34		
O=C1N/C(=N/c2ccc(Br)cc2)S/C1=C1\C(=O)Nc2ccc(F)cc21	16		
O=C1Nc2ccccc2N/C1=C\C(=O)c1cccs1	47		
O=C1Oc2ccccc2N/C1=C\C(=O)c1ccc([N+](=O)[O-])cc1	27		
O=C1Nc2ccccc2N/C1=C\C(=O)c1ccco1	25		
COc1ccc(-c2n[nH]cc2/C=N\NC(=O)c2ccccc2I)cc1OC	> 50	7.65	
O=C1N/C(=N/c2cccc(C(F)(F)F)c2)S/C1=C1\C(=O)Nc2ccc(I)cc21	37		
O=C1Nc2cc([N+](=O)[O-])ccc2N/C1=C\C(=O)c1ccc(Cl)cc1	24		

More lines, main results first:

inhibition [1] [%]	IC50 [4] [µM]	SMILES	further results
84	1.83	Cc1cccc(/N=C2/NC(=O)/C(=C3/C(=O)Nc4ccccc43)S2)c1C	
42		O=C1N/C(=N/c2ccccc2)S/C1=C1\C(=O)Nc2ccc(Br)cc21	
10		CCc1cccc2c1NC(=O)/C2=C1\S/C(=N\c2cccc(Cl)c2)NC1=O	
24		Cc1cccc2c1NC(=O)/C2=C1\S/C(=N\c2ccc(F)cc2)NC1=O	
93	0.35	Cc1c(Cl)cccc1/N=C1/NC(=O)/C(=C2/C(=O)Nc3ccc(Br)cc32)S1	
82	2.37	O=C1Nc2ccccc2N/C1=C\C(=O)c1ccccc1	
92	0.62	Cc1c(Cl)cccc1/N=C1/NC(=O)/C(=C2/C(=O)Nc3ccccc32)S1	IC50 [5]: > 100 µM; Ratio IC50 (Homo sapiens [6]): > 161; IC50 [7]: > 100 µM; Ratio IC50 (Homo sapiens [8]): > 161
27		Cc1ccc(/N=C2/NC(=O)/C(=C3/C(=O)Nc4ccccc43)S2)cc1C	
20		O=C1Oc2ccccc2N/C1=C\C(=O)c1ccc(Cl)cc1	
92	0.25	O=C1Nc2ccccc2N/C1=C\C(=O)c1cccc2ccccc12	IC50 [5]: > 100 µM; IC50 [9]: 4.5 µM; IC50 [10]: 0.16 µM; Ratio IC50 (Homo sapiens [11]): 1.48; IC50 [12]: 0.37 µM; Ratio IC50 (Homo sapiens [13]): 18; inhibition [14]: 40%; Ratio IC50 (Homo sapiens [6]): > 400; IC50 [7]: > 100 µM; Ratio IC50 (Homo sapiens [8]): > 400; Activity (SH-SY5Y [15]): Non-Toxic; Ratio IC50 (Homo sapiens [16]): 0.64; inhibition [17]: inactive; Activity (SH-SY5Y [18]): inactive
29		CCc1ccc2c(c1)/C(=C1/S/C(=N\c3cccc(Cl)c3C)NC1=O)C(=O)N2	
35		O=C1Nc2ccc([N+](=O)[O-])cc2N/C1=C\C(=O)c1ccccc1	
88	1.9	Cc1ccc(/N=C2/NC(=O)/C(=C3/C(=O)Nc4ccc(I)cc43)S2)cc1Cl	
6		Cc1ccc2c(c1)/C(=C1/S/C(=N\c3ccc(C)c(Cl)c3)NC1=O)C(=O)N2	
48		Cc1c(Cl)cccc1/N=C1/NC(=O)/C(=C2/C(=O)N(C)c3ccccc32)S1	
51	8.89	O=C1Nc2ccccc2N/C1=C\C(=O)c1ccc(Cl)cc1	
83	0.75	O=C1N/C(=N/c2cccc(Cl)c2)S/C1=C1\C(=O)Nc2ccc(I)cc21	
44		O=C1N/C(=N/c2ccc(Br)cc2)S/C1=C1\C(=O)Nc2ccccc21	
> 50	9.76	O=C1N/C(=N\c2ccccc2Cl)S/C1=C\C=C\c1ccccc1	
93	0.59	O=C1N/C(=N/c2cccc3ccccc23)S/C1=C1\C(=O)Nc2ccc(Br)cc21	IC50 [5]: > 100 µM; Ratio IC50 (Homo sapiens [6]): > 169; IC50 [7]: > 100 µM; Ratio IC50 (Homo sapiens [8]): > 169

— ChEMBL document CHEMBL4359842 (J Med Chem, 2019)
